The record followed here is US11279733B2, “Peptide antibiotics” (priority 2017, dated 2022).

Values after ≈ are worked out from the molar mass of the structure shown. Positions of bridges follow the written chain, without caps; N, C: chain ends. Non-standard residues stand in square brackets, D forms with d. Residues, ends and D or L forms follow the SMILES beside them. *: point of attachment. Decanoyl(3R-OH) = CCCCCCC[C@@H](O)CC(=O)*; Nle = CCCC[C@H](N)C(=O)O; dDap = NC[C@@H](N)C(=O)O; Dab = NCC[C@H](N)C(=O)O; Nva = CCC[C@H](N)C(=O)O; Abu = CC[C@H](N)C(=O)O

The nature of one data set: in vitro. The note with it: human. As for the experimental part:
Cytotoxicity of the synthesised peptides was evaluated by comparison with commercially available colistin (polymyxin E), polymyxin B (Sigma chemical Co., St. Louis, Mo., U.S.A.) and synthetic octapeptin C4 by conducting lactate dehydrogenase (LDH) assay. CC50 values calculated based on curve fitting of dose dependent inhibition of cell growth represented the cytotoxicity of the peptide. Human kidney 2 (HK2) cells were seeded as 2000 cells per well in a 384 well cell culture plate in a final volume of 20 μL in DMEM/F12 medium (Invitrogen #11330057), in which 10% of FBS was added. Cells were incubated for 24 hours at 37° C., 5% CO2 to allow cells to attach to the plates. Similar conditions were employed for HEK293 and HepG2 cytotoxicity assays.
Cytotoxicity to HEK293 and HepG2 cells was determined using the resazurin assay (McMillian, M. K.; Li, L.; Parker, J. B.; Patel, L.; Zhong, Z.; Gunnett, J. W.; Powers, W. J.; Johnson, M. D. An improved resazurin-based cytotoxicity assay for hepatic cells; Cell Biol. Toxicol. 2002, 18, 157-173; O'Brien, J.; Wilson, I.; Orton, T.; Pognan, F. Investigation of the Alamar Blue (resazurin) fluorescent dye for the assessment of mammalian cell cytotoxicity. Eur. J. Biochem. 2000, 267, 5421-5426). In brief, HEK293 and HepG2 cells were seeded at 4000 cells/well in black-wall, clear-bottom 384-well plates (Corning, Australia) and incubated for 24 h at 37° C., 5% CO2. Compounds were then added into each well. After 24 h incubation, 5 μM resazurin was added per well and incubated at 37° C. for 2 h. Fluorescence intensity was then read using a Polarstar Omega with excitation/emission 560/590. The data was then analyzed using GraphPad Prism 6 software. CC50 values were determined using GraphPad Prism 6 software (Inc. La Jolla, Calif.).

The subject of data set [1] is P. aeruginosa GN_043, PmxR. The note with it: P. aeruginosa GN_043, PmxR. The gist of the method: (§1)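 Mid-log cultures grown in Mueller Hinton broth at 37° C were tested by 2-fold broth microdilution at 5×10^5 CFU/mL final. Compounds were dissolved in water and tested over a final range of 32 to 0.015 μg/mL.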
The next data set deals with A. baumannii ATCC 19606. The note with it: ATCC 19606. Put shortly:
as §1

In another data set the test system is A. baumannii GN_093 PmxR. The note with it: GN 093 PmxR. Put shortly: as §1
Data set [2] concerns K. pneumoniae GN_102 PmxR. The note with it: GN 102 PmxR. The gist of the method: as §1
The next data set deals with P. aeruginosa ATCC 27853. The note with it: ATCC 27853. The gist of the method:
as §1

Data set [3] relates to P. aeruginosa GN_105, PmxR. The note with it: GN 105, PmxR. The gist of the method: as §1
Data set [4] has as its system K. pneumoniae ATCC 700603, MDR. The note with it: ATCC 700603. The gist of the method: as §1
The subject of a further data set is K. pneumoniae ATCC 13883. The note with it: ATCC 13883. The gist of the method: as §1
Data set [5] relates to K. pneumoniae GN_106, PmxR. The note with it: GN 106, PmxR. Put shortly: as §1
The next data set has as its system E. coli ATCC 25922. The note with it: ATCC 25922. Put shortly: as §1
Data set [6] relates to K. pneumoniae ATCC BAA-2146, NDM-1 pos. The note with it: ATCC BAA-2146. The gist of the method: as §1

In “in vitro”, `CCCCCCC[C@@H](O)CC(=O)N[C@H](CN)C(=O)N[C@H]1CCNC(=O)[C@H](CC(C)C)NC(=O)[C@H](CCN)NC(=O)[C@H](CCN)NC(=O)[C@H](CC)NC(=O)[C@@H](Cc2ccccc2)NC(=O)[C@H](CCN)NC1=O` [compound 9292, 3(R)OH-nC9CO-D-Dap-cyc[L-Dab-L-Dab-D-Phe-L-Abu-L-Dab-L-Dab-L-Leu]] ({Decanoyl(3R-OH)}-[dDap][Dab][Dab][dF][Abu][Dab][Dab]L; lactam 2-C) yielded a CC50 at 24 h of more than 300 µM. Also, the “MIC P. aeruginosa GN_043, PmxR” value in [1] is 2 µg/mL (≈ 2 µM). The “MIC A. baumannii ATCC 19606” value in the data set on A. baumannii ATCC 19606 worked out at 8 µg/mL (≈ 7.98 µM). In addition, in the data set on A. baumannii GN_093 PmxR, the “MIC A. baumannii GN_093 PmxR” value worked out at 8 µg/mL (≈ 7.98 µM). Further, in data set [2], the “MIC K. pneumoniae GN_102 PmxR” value is 2 µg/mL (≈ 2 µM). In addition, in the data set with P. aeruginosa ATCC 27853, the “MIC P. aeruginosa ATCC 27853” value was 2 µg/mL (≈ 2 µM). For the same compound, the “MIC P. aeruginosa GN_105, PmxR” value in [3] was 8 µg/mL (≈ 7.98 µM). For the same compound, in data set [4], the “MIC K. pneumoniae ATCC 700603, MDR” value came out at 4 µg/mL (≈ 3.99 µM). In addition, the “MIC K. pneumoniae ATCC 13883” value with K. pneumoniae ATCC 13883 came to 4 µg/mL (≈ 3.99 µM). The “MIC K. pneumoniae GN_106, PmxR” value in [5] is 4 µg/mL (≈ 3.99 µM). Moreover, in the data set with E. coli ATCC 25922, the “MIC E. coli ATCC 25922” value came to 4 µg/mL (≈ 3.99 µM). Besides, the “MIC K. pneumoniae ATCC BAA-2146, NDM-1 pos” value in data set [6] is 4 µg/mL (≈ 3.99 µM).
With `CCCCCCC[C@@H](O)CC(=O)N[C@H](CN)C(=O)N[C@H]1CCNC(=O)[C@H](CC(C)C)NC(=O)[C@H](CCN)NC(=O)[C@H](CCN)NC(=O)[C@H](CCC)NC(=O)[C@@H](Cc2ccccc2)NC(=O)[C@H](CCN)NC1=O` [compound 9293, 3(R)OH-nC9CO-D-Dap-cyc[L-Dab-L-Dab-D-Phe-L-NorVal-L-Dab-L-Dab-L-Leu]] ({Decanoyl(3R-OH)}-[dDap][Dab][Dab][dF][Nva][Dab][Dab]L; lactam 2-C), the CC50 at 24 h in “in vitro” was more than 300 µM. Besides, the “MIC P. aeruginosa GN_043, PmxR” value in data set [1] is 1 µg/mL (≈ 0.984 µM). Further, the “MIC A. baumannii ATCC 19606” value with A. baumannii ATCC 19606 was 8 µg/mL (≈ 7.87 µM). Also, the “MIC A. baumannii GN_093 PmxR” value in the data set on A. baumannii GN_093 PmxR is 4 µg/mL (≈ 3.94 µM). Also, the “MIC K. pneumoniae GN_102 PmxR” value in [2] is 2 µg/mL (≈ 1.97 µM). Further, the “MIC P. aeruginosa ATCC 27853” value in the data set with P. aeruginosa ATCC 27853 was 2 µg/mL (≈ 1.97 µM). Also, the “MIC P. aeruginosa GN_105, PmxR” value in data set [3] is 4 µg/mL (≈ 3.94 µM). For the same compound, the “MIC K. pneumoniae ATCC 700603, MDR” value in [4] was 4 µg/mL (≈ 3.94 µM). Further, the “MIC K. pneumoniae ATCC 13883” value with K. pneumoniae ATCC 13883 came to 4 µg/mL (≈ 3.94 µM). In addition, in [5], the “MIC K. pneumoniae GN_106, PmxR” value is 2 µg/mL (≈ 1.97 µM). Moreover, the “MIC E. coli ATCC 25922” value against E. coli ATCC 25922 was determined as 4 µg/mL (≈ 3.94 µM). For the same compound, the “MIC K. pneumoniae ATCC BAA-2146, NDM-1 pos” value in [6] was 4 µg/mL (≈ 3.94 µM).
Compound `CCCCCCC[C@@H](O)CC(=O)N[C@H](CN)C(=O)N[C@H]1CCNC(=O)[C@H](CC(C)C)NC(=O)[C@H](CCN)NC(=O)[C@H](CCN)NC(=O)[C@H](CCCC)NC(=O)[C@@H](Cc2ccccc2)NC(=O)[C@H](CCN)NC1=O` [compound 9294, 3(R)OH-nC9CO-D-Dap-cyc[L-Dab-L-Dab-D-Phe-L-NorLeu-L-Dab-L-Dab-L-Leu]] ({Decanoyl(3R-OH)}-[dDap][Dab][Dab][dF][Nle][Dab][Dab]L; lactam 2-C) showed a CC50 at 24 h in the data set “in vitro” of 193 µM. For the same compound, the “MIC P. aeruginosa GN_043, PmxR” value in [1] came out at 1 µg/mL (≈ 0.971 µM). Further, the “MIC A. baumannii ATCC 19606” value in the data set with A. baumannii ATCC 19606 came to 8 µg/mL (≈ 7.76 µM). Further, the “MIC A. baumannii GN_093 PmxR” value in the data set on A. baumannii GN_093 PmxR was 4 µg/mL (≈ 3.88 µM). Besides, the “MIC K. pneumoniae GN_102 PmxR” value in [2] turned out to be 2 µg/mL (≈ 1.94 µM). In addition, the “MIC P. aeruginosa ATCC 27853” value in the data set on P. aeruginosa ATCC 27853 was determined as 2 µg/mL (≈ 1.94 µM). The “MIC P. aeruginosa GN_105, PmxR” value in data set [3] was 4 µg/mL (≈ 3.88 µM). In data set [4], the “MIC K. pneumoniae ATCC 700603, MDR” value was 4 µg/mL (≈ 3.88 µM). Also, the “MIC K. pneumoniae ATCC 13883” value with K. pneumoniae ATCC 13883 came out at 4 µg/mL (≈ 3.88 µM). The “MIC K. pneumoniae GN_106, PmxR” value in data set [5] came out at 2 µg/mL (≈ 1.94 µM). In addition, the “MIC E. coli ATCC 25922” value in the data set with E. coli ATCC 25922 was determined as 4 µg/mL (≈ 3.88 µM). Also, the “MIC K. pneumoniae ATCC BAA-2146, NDM-1 pos” value in data set [6] stood at 4 µg/mL (≈ 3.88 µM).
